# Measured values published in US12558342B2, “2-[2-({12,12-dimethyl-4-oxo-6-phenyl-3,11-dioxatricyclo[8.4.0.0,2,7]tetradeca-1,5,7,9-tetraen-8-yl}oxy)acetamido]benzamide and derivatives as inhibitor of clock:bmal1 interaction for the treatment of circadian rhythm diseases and disorders” (KOC UNIVERSITESI, priority 2019, dated 2026).
# Assays:
# [1] = system: U2OS cells; experiment: MTT-based cell cytotoxicity test; set-up: species or system human
# Protocol: The toxicity of the compounds was assessed by MTT-based assay using immortalized human osteosarcoma (U2OS) cells treated with different compounds at different concentrations. Cell viability was measured with MTT-based cell cytotoxicity test. U2OS cells were seeded on 96-well plate with 4×10^3 cell/well density. Two days later, the cells were treated with an appropriate amount of different small molecules. Control cells were treated with 0.5% vehicle (DMSO). After 48 hours, the media was replaced with a 20% solution of 5 mg/ml MTT in DMEM. After 4 hours of incubation, the media was discarded and a 1:1 solution of ethanol and DMSO was used to dissolve the formazan crystals. Cell viability was measured as stated in Sigma-Aldrich product information.
# Compounds with a relative cell viability of less than 80% at 1.25 μM were eliminated. The final concentration of a non-toxic compounds for in vitro experiments was set to the maximum concentration at which it had at least 80% relative cell viability. Ultimately, 72 compounds were statistically identified as non-toxic and used for the next characterization step.
# [2] = molecular target: T1, BMAL1 (Mus musculus, UniProt Q9WTL8); experiment: LC-MS/MS of pull-down precipitates, BMAL1; type: binding; settings: Competitor 0 μM
# T1 construct: expressed in transfected cells; host or cells: HEK 293T
# T1 sequence (Q9WTL8 whole entry): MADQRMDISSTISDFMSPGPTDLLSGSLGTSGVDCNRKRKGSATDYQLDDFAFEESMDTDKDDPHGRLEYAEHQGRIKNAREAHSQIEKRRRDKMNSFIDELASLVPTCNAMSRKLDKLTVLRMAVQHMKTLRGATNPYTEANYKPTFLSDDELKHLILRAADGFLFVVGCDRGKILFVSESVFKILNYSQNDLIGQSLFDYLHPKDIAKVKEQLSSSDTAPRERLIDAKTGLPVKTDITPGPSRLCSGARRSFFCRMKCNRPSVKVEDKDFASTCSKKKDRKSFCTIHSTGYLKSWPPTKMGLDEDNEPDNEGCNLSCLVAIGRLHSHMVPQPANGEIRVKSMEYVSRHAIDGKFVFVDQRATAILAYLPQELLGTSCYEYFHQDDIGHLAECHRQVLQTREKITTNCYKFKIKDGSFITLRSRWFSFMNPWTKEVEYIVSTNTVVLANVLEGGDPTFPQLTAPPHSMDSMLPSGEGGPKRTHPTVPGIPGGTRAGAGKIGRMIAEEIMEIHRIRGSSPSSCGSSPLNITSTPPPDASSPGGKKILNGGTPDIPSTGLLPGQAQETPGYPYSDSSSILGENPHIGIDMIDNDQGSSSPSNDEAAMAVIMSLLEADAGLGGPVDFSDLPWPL
# Protocol: (§1) HEK293T cells were transiently transfected with tag-free hsClock and mBmal1. After 48 hours of transfection, cells were harvested and whole cell lysate was prepared with ice-cold lysis buffer (50 mM Tris-HCl pH 7.4, 2 mM EDTA, 1 mM MgCl2, 0.2% NP-40, 1 mM sodium orthovanadate, 1 mM sodium fluoride and protease inhibitor cocktail) followed by centrifugation at 7000×g at 4° C. for 10 minutes. Lysate was diluted with ice-cold 2× binding buffer (100 mM Tris-HCl pH 7.4, 300 mM NaCl, 0.2% NP-40, 2 mM sodium orthovanadate, 2 mM sodium fluoride, and protease inhibitor cocktail) 27. The lysate was divided into three fractions to be treated with either DMSO, or 20 μM of bitoinylated-CLK8 (bait) with or without 200 μM CLK8 (competitor). […]
# The next step was to check for off-targets of CLK8. […] Since the amount of precipitated endogenous CLOCK was insufficient to be detected in LC-MS/MS, whole cell lysate of HEK 293T cells overexpressing CLOCK and BMAL1 were used for LC-MS/MS. We determined proteins that potentially bind to CLK8 by utilizing a minimum threshold for peptide spectrum matches and coverage equal to those of the main target, CLOCK. We also excluded proteins that have been detected in negative controls of the CRAPome database (32), assuming them as abundant sticky proteins. […] BMAL1 was detected in lower amounts when a competitor was present. […]
# [3] = molecular target: T2, CLOCK:BMAL1 interaction (Homo sapiens, UniProt O15516); experiment: Mammalian two-hybrid assay; type: cell-based; settings: HEK293T
# T2 construct: expressed in transfected cells; host or cells: HEK293T
# T2 sequence (O15516 1-846): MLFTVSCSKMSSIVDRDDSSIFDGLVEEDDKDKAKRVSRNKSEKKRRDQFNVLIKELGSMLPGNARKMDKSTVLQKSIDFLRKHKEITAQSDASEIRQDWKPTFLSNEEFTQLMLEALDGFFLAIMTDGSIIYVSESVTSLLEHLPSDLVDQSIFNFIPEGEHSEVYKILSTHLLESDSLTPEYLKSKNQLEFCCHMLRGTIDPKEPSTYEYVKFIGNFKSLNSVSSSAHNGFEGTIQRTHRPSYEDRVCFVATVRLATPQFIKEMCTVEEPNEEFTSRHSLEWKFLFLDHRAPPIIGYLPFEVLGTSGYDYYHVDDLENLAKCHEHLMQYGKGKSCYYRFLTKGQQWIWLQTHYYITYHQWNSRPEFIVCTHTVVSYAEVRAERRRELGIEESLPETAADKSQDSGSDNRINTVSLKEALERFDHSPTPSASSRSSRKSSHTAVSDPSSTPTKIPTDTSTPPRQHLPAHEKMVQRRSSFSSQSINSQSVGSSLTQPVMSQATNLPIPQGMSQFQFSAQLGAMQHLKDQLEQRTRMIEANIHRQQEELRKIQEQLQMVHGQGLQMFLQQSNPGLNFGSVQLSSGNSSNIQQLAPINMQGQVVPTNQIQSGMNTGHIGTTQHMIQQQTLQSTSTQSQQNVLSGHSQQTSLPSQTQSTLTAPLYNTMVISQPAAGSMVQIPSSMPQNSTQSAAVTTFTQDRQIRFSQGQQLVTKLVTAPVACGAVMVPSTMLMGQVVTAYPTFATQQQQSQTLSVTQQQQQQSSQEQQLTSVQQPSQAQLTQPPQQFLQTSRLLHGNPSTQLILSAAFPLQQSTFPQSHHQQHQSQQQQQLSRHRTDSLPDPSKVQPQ
# Protocol: The procedure was carried out according to Checkmate-Promega's protocol. Samples were examined in triplicate sets in a 96-well plate. HEK293T cells with the density of 4×10^4 cell/well were transfected with 50 ng of pG5-luc, 50 ng of pACT-mBmal1, 50 ng of pBind-hsClock plasmids and 0.5 ng of pRL-TK for normalization. Following the transfection, the cells were treated with different concentrations of small molecules. Control cells were treated with 0.5% vehicle (DMSO).
# Ultimately, luminescence was measured using Dual-Luciferase Reporter Assay System (Promega) with Fluoroskan Ascent FL plate reader.
# [4] = molecular target: T3, CLOCK (Homo sapiens, UniProt O15516); experiment: Pull-down assay with biotinylated CLK8, lysate of HEK293T cells overexpressing CLOCK and BMAL1; type: binding; set-up: expressed in transfected cells; host or cells: HEK293T; settings: 200 μM competitor
# T3 sequence (O15516 1-846): T2 sequence (O15516 1-846)
# Protocol: as §1, with “(competitor). The lysate-compound samples were incubated and mixed continuously at 4° C. for 1 hour. After equilibrating NeutroAvidin Agarose resin (Thermo Scientific) with lysis buffer, the lysate-compound mixture and NeutroAvidin Agarose resin were incubated and mixed continuously at 4° C. overnight. The beads were washed four times with 1× binding buffer. To elute the bound proteins Laemmli buffer was added and samples were heated at 95° C. for 7 minutes. The pull-down precipitates were subjected to SDS-PAGE and transferred to a PVDF membrane (Millipore).” for “(competitor).”
structure (smiles),measurement,setting,value
"CC1(C)CCc2c(cc(OCC(=O)Nc3ccccc3C(N)=O)c3c(-c4ccccc4)cc(=O)oc23)O1 [CLK8, 2-[2-({12,12-dimethyl-4-oxo-6-phenyl-3,11-dioxatricyclo [8.4.0.0,2,7]tetradeca-1,5,7,9-tetraen-8-yl}oxy)acetamido] benzamide]",toxicity to the U2OS cell line,[1],not toxic
same,"Peptide spectrum matches, BMAL1",[2],56
same,interaction between CLOCK and BMAL1 (two-hybrid),[3],reduces the interaction between CLOCK and BMAL1
same,binding to CLOCK (competition with bait),[4],specifically binds to CLOCK
